pIC50: −log10 of the molar value.
How the values were obtained:
[1] = test system: HT-29 human colon carcinoma tumor cells; test: In vivo anti-tumor activity, HT-29 xenograft; details: 60 mg/kg once daily by oral gavage; for T/C (%): HT-29 subcutaneous tumors in female Balb/C nu/nu mice, treated/control average tumor size at end of study; for Survival: HT-29 tumor-bearing female Balb/C nu/nu mice, surviving/total
Method: In Vivo Anti-Tumor Activity
Acclimated female Balb/C nu/nu mice are injected subcutaneously into the flank with cell pellets of 5×10^6 HT-29 human colon carcinoma tumor cells (ATCC #HTB-38). The mice are fed sterile rodent chow and water ad libitum, and kept in pathogen-free, sterile-filtered cages with half-day light/dark cycles. Tumors are allowed to grow until they reach an average size of 100-150 mm^3, determined by caliper measurement. One day before beginning treatment, mice are randomized by tumor size into evenly distributed cohorts. Mice are dosed once daily by oral gavage (10 ml/kg) with compounds formulated as solutions in Cremaphor EL:Ethanol:Water, at a 1:1:6 ratio. Control mice are dosed with the formulation vehicle only. Tumor size and mouse weight are monitored every three to four days. At the end of the study, treatment efficacy is determined by the T/C value, calculated by dividing the average tumor size of a compound-treated cohort by the average tumor size of the control-treated cohort, expressed as a percentage. Therefore, anti-tumor efficacy is inversely proportional to the T/C.

VEGFR2 kinase = target: T1, VEGFR2 kinase (Homo sapiens, UniProt P35968); test: In vitro VEGFR2 kinase assay; assay type: biochemical; details: ADP Quest assay, poly Glu:Tyr substrate, 60 μM ATP
T1 construct: purchased Invitrogen Inc PV3660
How it was run: (§1)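 Compound was preincubated 10 min at ~22 °C with 20 ng VEGFR2 or 25 ng PDGFRβ, then poly Glu:Tyr (4:1) substrate (0.25 μg) with 60 μM ATP (in added buffer) was reacted 2 h at 30 °C. ADP Quest resorufin fluorescence was read (ex 530/em 580) after 30 min. Efficacy is expressed as percent of positive-control (Bay 43-9006) activity, with DMSO as negative control.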

[2] = target: T2, human B-Raf protein kinase (Homo sapiens, UniProt P15056); test: In vitro B-Raf/Mek1 composite kinase assay; assay type: biochemical; details: recombinant GST-tagged human B-Raf (Δ1-415) with inactive Mek1, 2 μM ATP
T2 construct: GST (N); purchased Upstate Inc. 14-530 (B-Raf); 14-420 (Mek1)
How it was run: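 Luminescent ATP-depletion assay using recombinant N-terminal GST-tagged human B-Raf (Δ1-415, 1 ng/well) in MOPS pH 7.2 buffer with 10 mM MgCl2. Compounds were preincubated 15 min at about 22° C, then the reaction ran 2 h before PKLight readout. Efficacy is expressed as percentage of positive-control (Bay 43-9006) activity.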

PDGFRβ kinase = target: T3, PDGFRβ kinase (Homo sapiens, UniProt P09619); test: In vitro PDGFRβ kinase assay; assay type: biochemical; details: ADP Quest assay, poly Glu:Tyr substrate, 60 μM ATP
T3 construct: purchased Invitrogen Inc. P3082
How it was run: as §1

T3 sequence (P09619 33-1106): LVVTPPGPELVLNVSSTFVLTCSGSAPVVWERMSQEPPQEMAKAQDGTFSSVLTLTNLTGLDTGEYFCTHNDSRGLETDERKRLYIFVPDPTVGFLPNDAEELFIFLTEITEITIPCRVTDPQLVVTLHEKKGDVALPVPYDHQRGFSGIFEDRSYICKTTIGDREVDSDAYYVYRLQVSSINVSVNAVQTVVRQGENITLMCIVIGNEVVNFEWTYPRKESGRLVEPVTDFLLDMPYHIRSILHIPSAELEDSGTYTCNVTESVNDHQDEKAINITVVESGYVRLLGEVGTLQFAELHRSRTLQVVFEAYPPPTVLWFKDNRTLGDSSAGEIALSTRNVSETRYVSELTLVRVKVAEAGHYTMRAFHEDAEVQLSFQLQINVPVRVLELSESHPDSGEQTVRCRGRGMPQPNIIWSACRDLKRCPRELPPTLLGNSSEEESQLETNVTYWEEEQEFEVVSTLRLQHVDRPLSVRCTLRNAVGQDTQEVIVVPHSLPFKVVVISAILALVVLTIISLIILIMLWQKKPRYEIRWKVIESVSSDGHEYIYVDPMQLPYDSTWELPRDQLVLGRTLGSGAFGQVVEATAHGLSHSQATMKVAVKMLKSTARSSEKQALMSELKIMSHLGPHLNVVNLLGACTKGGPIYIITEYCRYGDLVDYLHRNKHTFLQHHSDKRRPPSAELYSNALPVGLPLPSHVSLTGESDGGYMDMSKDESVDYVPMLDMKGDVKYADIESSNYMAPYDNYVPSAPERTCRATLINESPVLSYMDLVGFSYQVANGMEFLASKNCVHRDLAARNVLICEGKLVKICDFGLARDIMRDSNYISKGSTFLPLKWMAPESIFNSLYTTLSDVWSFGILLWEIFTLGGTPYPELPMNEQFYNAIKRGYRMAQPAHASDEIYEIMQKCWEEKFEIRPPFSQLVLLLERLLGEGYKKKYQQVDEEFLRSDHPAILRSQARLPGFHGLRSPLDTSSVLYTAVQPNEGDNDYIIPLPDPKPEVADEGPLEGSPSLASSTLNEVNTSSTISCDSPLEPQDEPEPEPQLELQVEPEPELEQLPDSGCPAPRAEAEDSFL
T1 sequence (P35968 20-1356): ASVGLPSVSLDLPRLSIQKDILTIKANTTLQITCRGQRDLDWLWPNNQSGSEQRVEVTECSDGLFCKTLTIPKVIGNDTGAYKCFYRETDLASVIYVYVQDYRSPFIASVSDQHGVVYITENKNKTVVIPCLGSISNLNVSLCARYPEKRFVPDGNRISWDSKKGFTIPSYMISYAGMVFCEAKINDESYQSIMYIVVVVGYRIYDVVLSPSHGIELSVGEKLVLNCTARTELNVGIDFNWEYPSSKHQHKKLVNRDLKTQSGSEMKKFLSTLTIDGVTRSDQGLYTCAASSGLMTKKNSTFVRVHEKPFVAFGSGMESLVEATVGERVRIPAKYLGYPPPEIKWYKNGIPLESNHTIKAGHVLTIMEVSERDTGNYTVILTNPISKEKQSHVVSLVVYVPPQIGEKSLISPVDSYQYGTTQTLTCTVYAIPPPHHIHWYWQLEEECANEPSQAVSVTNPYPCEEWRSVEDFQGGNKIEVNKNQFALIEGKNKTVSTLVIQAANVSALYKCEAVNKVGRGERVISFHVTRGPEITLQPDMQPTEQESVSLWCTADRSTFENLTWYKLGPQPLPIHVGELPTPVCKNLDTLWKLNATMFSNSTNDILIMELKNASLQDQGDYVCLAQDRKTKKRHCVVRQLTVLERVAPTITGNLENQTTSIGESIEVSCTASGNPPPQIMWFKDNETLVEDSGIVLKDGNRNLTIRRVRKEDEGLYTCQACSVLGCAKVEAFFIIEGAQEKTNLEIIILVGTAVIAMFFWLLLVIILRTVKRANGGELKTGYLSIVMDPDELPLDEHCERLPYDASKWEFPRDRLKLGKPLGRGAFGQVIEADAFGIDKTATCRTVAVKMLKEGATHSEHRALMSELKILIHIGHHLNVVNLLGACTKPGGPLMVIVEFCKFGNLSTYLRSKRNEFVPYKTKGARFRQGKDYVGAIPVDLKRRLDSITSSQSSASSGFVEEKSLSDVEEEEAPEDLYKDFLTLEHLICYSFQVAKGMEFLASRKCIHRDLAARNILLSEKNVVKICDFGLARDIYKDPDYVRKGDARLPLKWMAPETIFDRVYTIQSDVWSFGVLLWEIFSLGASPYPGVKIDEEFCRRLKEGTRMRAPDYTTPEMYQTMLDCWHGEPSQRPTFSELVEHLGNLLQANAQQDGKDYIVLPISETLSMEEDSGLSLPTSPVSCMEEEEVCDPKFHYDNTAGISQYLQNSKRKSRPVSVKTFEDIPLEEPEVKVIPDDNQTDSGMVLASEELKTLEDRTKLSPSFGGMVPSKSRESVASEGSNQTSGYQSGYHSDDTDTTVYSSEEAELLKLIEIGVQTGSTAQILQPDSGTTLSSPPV
T2 sequence (P15056 416-766): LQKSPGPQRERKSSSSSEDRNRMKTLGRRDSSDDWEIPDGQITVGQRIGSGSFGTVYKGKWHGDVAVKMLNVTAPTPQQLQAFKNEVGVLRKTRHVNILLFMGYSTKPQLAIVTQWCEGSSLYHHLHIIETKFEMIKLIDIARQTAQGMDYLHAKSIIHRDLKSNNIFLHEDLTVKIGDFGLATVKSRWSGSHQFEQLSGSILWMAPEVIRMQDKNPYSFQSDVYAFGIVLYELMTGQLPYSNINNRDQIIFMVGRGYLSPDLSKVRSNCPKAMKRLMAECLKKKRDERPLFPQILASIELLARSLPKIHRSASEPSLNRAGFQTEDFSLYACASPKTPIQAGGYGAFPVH

Row | Structure (SMILES) | T/C (%) [1] | Survival [1] | pIC50 (VEGFR2 kinase) | pIC50 [2] | pIC50 (PDGFRβ kinase)
1 | Cn1cc(-c2cc(Oc3cccc(NC(=O)Nc4ccc(Cl)c(C(F)(F)F)c4)c3)ncn2)cn1 [Example 34, 1-(4-Chloro-3-(trifluoromethyl)phenyl)-3-(3-(6-(1-methyl-1H-pyrazol-4-yl)pyrimidin-4-yloxy)phenyl)urea] | 20% | 10/10 | ≥ 5.00 | ≥ 5.00 | ≥ 5.00
2 | Cn1cc(-c2nccc(Oc3ccc(NC(=O)Nc4ccc(Cl)c(C(F)(F)F)c4)cc3)n2)cn1 [Example 65, 1-(4-Chloro-3-(trifluoromethyl)phenyl)-3-(4-(2-(1-methyl-1H-pyrazol-4-yl)pyrimidin-4-yloxy)phenyl)urea] | 25% | 10/10 | ≥ 5.00 | ≥ 5.00 | ≥ 5.00
3 | Cn1cc(-c2cc(Oc3ccc(F)c(NC(=O)Nc4ccc(Cl)c(C(F)(F)F)c4)c3)ncn2)cn1 [Example 66, 1-(4-Chloro-3-(trifluoromethyl)phenyl)-3-(2-fluoro-5-(6-(1-methyl-1H-pyrazol-4-yl)pyrimidin-4-yloxy)phenyl)urea] | 11% | 10/10 | ≥ 5.00 | ≥ 5.00 | ≥ 5.00
4 | Cn1cc(-c2cc(Oc3cccc(NC(=O)Nc4ccc(C(F)(F)F)cc4)c3)ncn2)cn1 [Example 87, 1-(3-(6-(1-Methyl-1H-pyrazol-4-yl)pyrimidin-4-yloxy)phenyl)-3-(4-(trifluoromethyl)phenyl)urea] | 15% | 10/10 | ≥ 5.00 | ≥ 5.00 | ≥ 5.00
5 | CN(C(=O)Nc1ccc(Cl)c(C(F)(F)F)c1)c1ccc(Oc2ccnc(-c3nc(C(F)(F)F)c[nH]3)c2)cc1 [Example 120, 3-(4-Chloro-3-trifluoromethyl-phenyl)-1-methyl-1-{4-[2-(4-trifluoromethyl-1H-imidazol-2-yl)-pyridin-4-yloxy]-phenyl}-urea] |  |  | ≥ 5.00 | ≥ 5.00 | ≥ 5.00
